Source: PMC3716607, “Inhibition of Histo-blood Group Antigen Binding as a Novel Strategy to Block Norovirus Infections” (PLoS ONE, 2013)

System: not listed separately
Experiment: MTS cytotoxicity assay
Assay type: cell-based, human (HeLa); rhesus monkey (LLC-MK2)
Conditions: not given
Protocol: This assay was performed using CellTiter 96 aqueous nonradioactive cell proliferation kits (Promega, Madison, WI) as described elsewhere. Briefly, HeLa and LLC-MK2 cells were seeded at 5×10^4 cells/ml onto a 96-well plate overnight. After an incubation with each compound at various concentrations for 3 days (the compound was added one time at the beginning of the incubation), the culture medium was replaced with fresh one with 100 µl of MTS-phenazine methosulfate/well. After a further incubation at 37°C for 2 h, the color products of MTS were measured with a plate reader at 490 nm. The cytotoxicities of individual compounds were indicated by the decrease in cellular reduction of MTS into the colored product. The 50% cytotoxic concentrations (CC50 s) were determined as the concentrations of the compounds that caused 50% inhibition of cell growth compared with that of control cells without a compound.

SMILES	CC50 at 3 days
C[C@]12CCC3C(CC[C@H]4CC=CC[C@]34C)C1CC/C2=N/NC(N)=S (some centres unmarked) [ZINC04026813]	212 µM
C/C(=N/O)C1=CCC2C3CC[C@H]4C/C(=N\O)CC[C@]4(C)C3CC[C@]12C (some centres unmarked) [ZINC04041115]	203 µM

Same assay, conditions: 3 days incubation; HeLa and LLC-MK2 cells, cell line not given; read-out: CC50

SMILES	CC50 at 3 days
CC(CCC(=O)O)C1CCC2C3CC=C4CC(O)CCC4(C)C3CCC12C (centres unmarked) [ZINC04831336]	225 µM
C[C@]12CC[C@H](O)C[C@@H]1CC[C@@H]1[C@@H]2CC[C@@]2(C)[C@H]1CC[C@]2(C)O [ZINC05223451]	171 µM
CC(=O)C1CCC2C3CCC4CC(O)CCC4(C)C3CCC12C (centres unmarked) [ZINC05260830]	267 µM

Target: VA387 P dimers binding to type A and B saliva HBGAs (Norovirus GII.4 (Human calicivirus NLV/VA98387/1998), UniProt Q913Z3)
Experiment: biochemical
Parameters: species or system GII.4 NoV (VA387)
Conditions: Activity (IC50), against binding of VA387 to the A and B saliva
Protocol: Saliva-based NoV-HBGA binding assays were performed as described previously using P dimers of VA387 (GII.4) as NoV surrogates and saliva samples and/or synthetic oligosaccharides as HBGA sources, [34], [35]. Briefly, synthetic oligosaccharides and/or boiled saliva samples with defined HBGAs phenotype were coated on 96-well microtiter plates, after blocking with nonfat milk, P dimer of VA387 were added. The bound P dimer was detected using a guinea pig antiserum against NoVs VLPs, followed by the addition of horseradish peroxidase (HRP)-conjugated goat anti-guinea pig IgG. The bound HRP conjugates were colorized by the TMB kit (Kirkegaard & Perry Laboratories), which was read an EIA spectrum reader (Tecan). The synthetic oligosaccharide-PAA conjugates (2 µg/ml, GlycoTech Corporation, Rockville, MD) were captured to a microtiter plate through coated streptavidin (5 µg/ml).
Blocking effects of the hit compounds were measured by a pre-incubation of the P dimers with the compounds at given concentrations for 30 min before the P dimers were added to the coated saliva samples or HBGA oligosaccharides in a binding assay. The blocking activity of a compound was defined as its concentration yielding 50% inhibition (IC50) in the binding assay. IC50 calculation was performed using Probit regression analysis and correlation analysis between IC50 and Ki values was performed with nonparametric Spearman’s r (two-tailed) by using SPSS statistical software version 13.0 (SPSS, Chicago, IL).

Sequence of VA387 P dimers binding to type A and B saliva HBGAs (Q913Z3 entry or part of it): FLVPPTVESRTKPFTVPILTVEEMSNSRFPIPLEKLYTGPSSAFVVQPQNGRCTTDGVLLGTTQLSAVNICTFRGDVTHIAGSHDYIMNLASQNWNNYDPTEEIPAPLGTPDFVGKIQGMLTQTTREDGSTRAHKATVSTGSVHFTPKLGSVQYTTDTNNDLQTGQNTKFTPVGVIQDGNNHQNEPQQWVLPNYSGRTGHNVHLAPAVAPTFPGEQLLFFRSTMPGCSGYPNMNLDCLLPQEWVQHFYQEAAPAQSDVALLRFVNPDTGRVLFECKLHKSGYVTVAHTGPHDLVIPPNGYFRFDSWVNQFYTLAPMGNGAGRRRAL

SMILES	IC50
CC(=O)C1=CCC2C3CC=C4CC(O)CCC4(C)C3CCC12C (centres unmarked) [ZINC00968234]	20 to 40 µM
C[C@]12CCC3C(CC[C@H]4CC=CC[C@]34C)C1CC/C2=N/NC(N)=S (some centres unmarked) [ZINC04026813]	1 to 10 µM
C/C(=N/O)C1=CCC2C3CC[C@H]4C/C(=N\O)CC[C@]4(C)C3CC[C@]12C (some centres unmarked) [ZINC04041115]	1 to 10 µM
CC12CCC(O)C=C1CCC1C2CCC2(C)C1CCC21CCC(=O)O1 (centres unmarked) [ZINC04081424]	20 to 40 µM
CC12CCC(=NOCC(=O)NCC(=O)O)C=C1CCC1C2CCC2(C)C(O)CCC12 (centres unmarked) [ZINC04084183]	10 to 20 µM
COc1cc([N+](=O)[O-])cc2c1NC(c1ccccn1)C1CC=CC21 (centres unmarked) [ZINC04450155]	20 to 40 µM
CC(CCC(=O)O)C1CCC2C3CC=C4CC(O)CCC4(C)C3CCC12C (centres unmarked) [ZINC04831336]	1 to 10 µM
C[C@]12CC[C@H](O)C[C@@H]1CC[C@@H]1[C@@H]2CC[C@@]2(C)[C@H]1CC[C@]2(C)O [ZINC05223451]	1 to 10 µM
CC(=O)C1CCC2C3CCC4CC(O)CCC4(C)C3CCC12C (centres unmarked) [ZINC05260830]	1 to 10 µM

Same assay, conditions: IC50 Saliva A, blocking assay, type A saliva; mean ± standard deviation

SMILES	IC50
O=C1CC(c2ccc([N+](=O)[O-])cc2)c2ccc3ccccc3c2N1 (centres unmarked) [ZINC00124088]	24.5 ± 0.98 µM
CC1(C)CC(=O)C2=C(C1)c1c(ccc3ccccc13)NC2 [ZINC00128665]	14.1 ± 0.53 µM
Cc1ccc(C2CC(=O)Nc3c2ccc2ccccc32)cc1[N+](=O)[O-] (centres unmarked) [ZINC00181174]	33.5 ± 0.68 µM
CC(=O)OCC(=O)C1CCC2C3CC=C4CC(O)CCC4(C)C3CCC12C (centres unmarked) [ZINC00652738]	30.9 ± 1.04 µM
CC12CCC3C(CCC4CC(=O)CCC43C)C1CCC2O (centres unmarked) [ZINC03814360]	36.9 ± 1.47 µM
Cc1noc2c1C1(C)CCC3C(CC=C4CC(O)CCC43C)C1C2 (centres unmarked) [ZINC04014899]	33.9 ± 1.67 µM
C[C@]12CCC3C(CC[C@H]4CC=CC[C@]34C)C1CC/C2=N/NC(N)=S (some centres unmarked) [ZINC04026813]	8.7 ± 1.03 µM
C/C(=N/O)C1=CCC2C3CC[C@H]4C/C(=N\O)CC[C@]4(C)C3CC[C@]12C (some centres unmarked) [ZINC04041115]	2.38 ± 0.15 µM
Nc1ccc2c(c1)C1C=CCC1C(c1ccc([N+](=O)[O-])cc1)N2 (centres unmarked) [ZINC04095376]	12.6 ± 0.87 µM
O=C(O)c1ccc(C2Nc3c(F)cccc3C3C=CCC32)cc1 (centres unmarked) [ZINC04298453]	38 ± 2.01 µM
COc1cc([N+](=O)[O-])cc2c1NC(c1ccccn1)C1CC=CC21 (centres unmarked) [ZINC04450155]	24.2 ± 0.74 µM
O=[N+]([O-])c1ccc2c(c1)C1C=CCC1C(C1CC=CCC1)N2 (centres unmarked) [ZINC04725822]	13.2 ± 1.04 µM
CC(CCC(=O)O)C1CCC2C3CC=C4CC(O)CCC4(C)C3CCC12C (centres unmarked) [ZINC04831336]	7.63 ± 0.27 µM
C[C@]12CC[C@H](O)C[C@@H]1CC[C@@H]1[C@@H]2CC[C@@]2(C)[C@H]1CC[C@]2(C)O [ZINC05223451]	3.37 ± 0.13 µM

Same assay, conditions: IC50 Saliva B, blocking assay, type B saliva; mean ± standard deviation

SMILES	IC50
O=C1CC(c2ccc([N+](=O)[O-])cc2)c2ccc3ccccc3c2N1 (centres unmarked) [ZINC00124088]	26.3 ± 1.24 µM
CC1(C)CC(=O)C2=C(C1)c1c(ccc3ccccc13)NC2 [ZINC00128665]	14.9 ± 0.71 µM
Cc1ccc(C2CC(=O)Nc3c2ccc2ccccc32)cc1[N+](=O)[O-] (centres unmarked) [ZINC00181174]	33.7 ± 1.27 µM
CC(=O)OCC(=O)C1CCC2C3CC=C4CC(O)CCC4(C)C3CCC12C (centres unmarked) [ZINC00652738]	30.1 ± 1.35 µM
CC12CCC3C(CCC4CC(=O)CCC43C)C1CCC2O (centres unmarked) [ZINC03814360]	35.7 ± 1.06 µM
Cc1noc2c1C1(C)CCC3C(CC=C4CC(O)CCC43C)C1C2 (centres unmarked) [ZINC04014899]	34.5 ± 1.93 µM
C[C@]12CCC3C(CC[C@H]4CC=CC[C@]34C)C1CC/C2=N/NC(N)=S (some centres unmarked) [ZINC04026813]	8.97 ± 0.63 µM
C/C(=N/O)C1=CCC2C3CC[C@H]4C/C(=N\O)CC[C@]4(C)C3CC[C@]12C (some centres unmarked) [ZINC04041115]	2.54 ± 0.21 µM
Nc1ccc2c(c1)C1C=CCC1C(c1ccc([N+](=O)[O-])cc1)N2 (centres unmarked) [ZINC04095376]	12.8 ± 0.64 µM
O=C(O)c1ccc(C2Nc3c(F)cccc3C3C=CCC32)cc1 (centres unmarked) [ZINC04298453]	39.4 ± 1.53 µM
COc1cc([N+](=O)[O-])cc2c1NC(c1ccccn1)C1CC=CC21 (centres unmarked) [ZINC04450155]	24.3 ± 0.87 µM
O=[N+]([O-])c1ccc2c(c1)C1C=CCC1C(C1CC=CCC1)N2 (centres unmarked) [ZINC04725822]	13.1 ± 0.87 µM
CC(CCC(=O)O)C1CCC2C3CC=C4CC(O)CCC4(C)C3CCC12C (centres unmarked) [ZINC04831336]	7.65 ± 0.33 µM
C[C@]12CC[C@H](O)C[C@@H]1CC[C@@H]1[C@@H]2CC[C@@]2(C)[C@H]1CC[C@]2(C)O [ZINC05223451]	3.39 ± 0.24 µM

Same assay, conditions: read-out: IC50 Saliva A; blocking assay, type A saliva; mean ± standard deviation

SMILES	IC50
CC1CCc2c(sc3ncn(C(C)C(=O)N/N=C/c4c(O)ccc5ccccc45)c(=O)c23)C1 (centres unmarked) [ZINC06166484]	17 ± 1.06 µM

Same assay, conditions: read-out: IC50 Saliva B; blocking assay, type B saliva; mean ± standard deviation

SMILES	IC50
CC1CCc2c(sc3ncn(C(C)C(=O)N/N=C/c4c(O)ccc5ccccc45)c(=O)c23)C1 (centres unmarked) [ZINC06166484]	16.8 ± 0.87 µM
